# Reference: patent publication US11286238B2, “Melatonin derivatives, method thereof, and use thereof” (Xiamen Nuokangde Biological Technology Co., Ltd., priority 2020, dated 2022)
# How the values were obtained:
# B16F10 cell lines = test: Cytotoxicity assay (CCK-8); assay type: cell-based; conditions: for Effect on cell proliferation at a low concentration / Effect on cell proliferation rate at higher concentrations: B16F10, 24 hours; for Effect on cell proliferation at a low concentration: CCK-8, absorbance 450 nm; for Effect on cell proliferation rate at higher concentrations: CCK-8, 5 mM and 10 mM
# Experimental: B16F10 cell lines were incubated into a plate with 96 wells. After cell adherence, a Mel solution with different concentrations or a Mels solution with different concentrations was respectively added to one of the 96 wells in turn. Final concentrations of the Mel solution or the Mels solution were respectively 10 μM (10 μmol/L), 100 μM (100 μmol/L), 1 mM (1 mmol/L), 5 mM (5 mmol/L), and 10 mM (10 mmol/L). After incubating for 24 hours, CCK-8 (Cell Counting Kit-8) was added into each one of the 96 wells. Absorbance of the Mel solution and the Mels solution was measured at 450 nm.
# mice = test: Sleep experiment in sodium pentobarbital mouse sleep models; assay type: in vivo
# Experimental: Mouse sleep models were established by injecting 300 μL 1% sodium pentobarbital solution into mice, and then dividing the mice into three groups. Each group comprised five mice. A first group of the three groups were injected with 100 μL normal saline as a control group, a second group of the three groups were injected with 100 μL natural unmodified melatonin (Mel) solution, a concentration of Mel was 86 μM (86 μmol/L) or 860 nM (860 nmol/L), and a third group of the three groups was injected with modified melatonin (Mels) solution with the same concentration and volume as that of the second group. A sleep duration began to be recorded one minute after a loss of righting reflex, and recording ended when the righting reflex returned.
# [1] = Solubility determination in water; assay type: physicochemical
# Experimental: In order to evaluate solubility of a new melatonin derivative of Embodiment 1, solubility of Mel and Mels were tested. […] Therefore, the solubility of Mels is nearly 700 times (695 times) the solubility of Mel (FIG. 4). Good water solubility of Mels can greatly improve application and greatly contribute to the research of this molecule in the field of medicine and biology.
# C57/B6 mice = test: Safety verification in vivo (body weight and diet changes); set-up: species or system mouse; conditions: intraperitoneal
# Experimental: To test a safety of Mels of Embodiment 1 in vivo, Mel, Mels, or saline was intraperitoneally injected into mice. Using C57/B6 mice (about 18 g), the mice were randomly divided into three groups: a control group, a Mel group, and a Mels group. Then, 200 μL of normal saline, Mel and Mels solution (dissolving Mel and Mels in saline containing 5% DMSO, 10 mmol/L) were respectively intraperitoneally injected into the mice. The injection process was repeated three times at days 2, 6, and 10, and body weight changes and diet changes of mice were recorded. […] In short, Mels has lower toxicity and good safety in vitro and in vivo.
# [2] = as disclosed in SCCS Opinion on MLT, 23 Mar. 2010; cited from earlier work
Compound,Effect on cell proliferation at a low concentration (B16F10 cell lines),Effect on cell proliferation rate at higher concentrations (B16F10 cell lines),"Cytotoxicity on cells compared with Mel (B16F10 cell lines; B16F10, at an even higher concentration)","Sleep time of mice (mice; mice given 300 μL 1% sodium pentobarbital, 100 μL of 86 μM or 860 nM solution injected, prolonged from 1 hour)","Effect on sleep compared with Mel (mice; same concentration and volume as Mel (86 μM or 860 nM, 100 μL))",solubility ([1]; in 100 mL water),Solubility of Mels relative to solubility of Mel ([1]; water solubility ratio versus melatonin),"Effect on body weights and diets of the mice (C57/B6 mice; 200 μL of 10 mmol/L in saline with 5% DMSO, days 2, 6 and 10, versus control group and Mel group)","Safety in vivo (C57/B6 mice; C57/B6 mice, 10 mmol/L, 200 μL, three injections)",Solubility in 100 mL water [2]
"COc1ccc2c(c1)c(CCNC(C)=O)cn2CCCCS(=O)(=O)[O-].[Na+] [Mels, 4-(3-(2-acetamidoethyl)-5-methoxy-1H-indol-1-yl) butane-1-sulfonate]",no effects on cell proliferation,little affected on cell proliferation rate,much smaller than that of Mel,3 h,same effect as Mel,1600 mg/mL,695 times,no significant effect,good safety in vivo,
"COc1ccc2[nH]cc(CCNC(C)=O)c2c1 [Mel, melatonin]",no effects on cell proliferation,affected cell proliferation rate,,,,,,,,0.2 g
